Reference: PubChem BioAssay AID1963444 (Molecular Pharmacology Branch, DTP, NCI, 2024)
pIC50: −log10 of the molar value. Each block holds one compound with its values, some of them ahead of it.

Tested on: HSSY-II complex spheroid growth, percent test/control
Test: Anticancer human tumor HSSY-II cell line growth inhibition [Asc];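 further: spheroids exposed to drug for 7 days before reading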
Conditions: for pIC50: curve of first compound; for viability, T/C: stronger effect = lower value
In short: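 Complex solid-tumor spheroids incorporating human endothelial and mesenchymal stem cells received single agents or combinations over half-log dilution ranges anchored to clinical Cmax.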

- pIC50 (second compound 0.03 µM): 7.97
- pIC50 (second compound 0.0949 µM): 8.70
- pIC50 (second compound 0.3 µM): > 9.50
- pIC50 (second compound 0.949 µM): > 9.50
- pIC50 (second compound 3 µM): > 9.50
Structure (SMILES): Cn1ncnc1[C@H]1c2n[nH]c(=O)c3cc(F)cc(c23)N[C@@H]1c1ccc(F)cc1 + CCN1C(C(=O)NC23CCC(C(=O)O)(CC2)CC3)C(c2cccc(Cl)c2F)C2(C(=O)Nc3cc(Cl)ccc32)C12CCCCC2
- viability, T/C (second compound 0.03 µM, first compound 0.000316 µM): 91.9%
- viability, T/C (second compound 0.03 µM, first compound 0.001 µM): 89.6%
- viability, T/C (second compound 0.03 µM, first compound 0.00316 µM): 68.1%
- viability, T/C (second compound 0.03 µM, first compound 0.01 µM): 52.8%
- viability, T/C (second compound 0.03 µM, first compound 0.0316 µM): 31.4%
- viability, T/C (second compound 0.03 µM, first compound 0.1 µM): 19.6%
- viability, T/C (second compound 0.0949 µM, first compound 0.000316 µM): 61.4%
- viability, T/C (second compound 0.0949 µM, first compound 0.001 µM): 53.6%
- viability, T/C (second compound 0.0949 µM, first compound 0.00316 µM): 47.1%
- viability, T/C (second compound 0.0949 µM, first compound 0.01 µM): 31%
- viability, T/C (second compound 0.0949 µM, first compound 0.0316 µM): 15.4%
- viability, T/C (second compound 0.0949 µM, first compound 0.1 µM): 10.2%
- viability, T/C (second compound 0.3 µM, first compound 0.000316 µM): 28.5%
- viability, T/C (second compound 0.3 µM, first compound 0.001 µM): 28.6%
- viability, T/C (second compound 0.3 µM, first compound 0.00316 µM): 18.2%
- viability, T/C (second compound 0.3 µM, first compound 0.01 µM): 10.4%
- viability, T/C (second compound 0.3 µM, first compound 0.0316 µM): 6.69%
- viability, T/C (second compound 0.3 µM, first compound 0.1 µM): 5.88%
- viability, T/C (second compound 0.949 µM, first compound 0.000316 µM): 8.57%
- viability, T/C (second compound 0.949 µM, first compound 0.001 µM): 7.9%
- viability, T/C (second compound 0.949 µM, first compound 0.00316 µM): 7.26%
- viability, T/C (second compound 0.949 µM, first compound 0.01 µM): 5.4%
- viability, T/C (second compound 0.949 µM, first compound 0.0316 µM): 6.11%
- viability, T/C (second compound 0.949 µM, first compound 0.1 µM): 6.09%
- viability, T/C (second compound 3 µM, first compound 0.000316 µM): 2.41%
- viability, T/C (second compound 3 µM, first compound 0.001 µM): 2.9%
- viability, T/C (second compound 3 µM, first compound 0.00316 µM): 4.02%
- viability, T/C (second compound 3 µM, first compound 0.01 µM): 2.59%
- viability, T/C (second compound 3 µM, first compound 0.0316 µM): 1.88%
- viability, T/C (second compound 3 µM, first compound 0.1 µM): 4.41%

- pIC50 (second compound 0.1 µM): 5.84
- pIC50 (second compound 0.316 µM): 5.87
- pIC50 (second compound 1 µM): 5.94
- pIC50 (second compound 3.16 µM): 5.99
- pIC50 (second compound 10 µM): 6.00
Structure (SMILES): C=C(F)C(=O)N1CCN(c2nc(OCC3CCCN3C)nc3c2CCN(c2cccc4cccc(Cl)c24)C3)CC1CC#N (stereo not given) + Cc1c(S(C)(=O)=O)c(-c2cc(F)cc(N3CCN(c4ccc(NS(=O)(=O)c5ccc(NC(CCN6CCC(C(=O)OCCCP(=O)(O)O)CC6)CSc6ccccc6)c(S(=O)(=O)C(F)(F)F)c5)cc4)CC3)c2)c(-c2ccc(Cl)cc2)n1C(C)C
- viability, T/C (second compound 0.1 µM, first compound 0.0316 µM): 106%
- viability, T/C (second compound 0.1 µM, first compound 0.1 µM): 106%
- viability, T/C (second compound 0.1 µM, first compound 0.316 µM): 86.7%
- viability, T/C (second compound 0.1 µM, first compound 1 µM): 72.7%
- viability, T/C (second compound 0.1 µM, first compound 3.16 µM): 0.9%
- viability, T/C (second compound 0.1 µM, first compound 10 µM): 0.13%
- viability, T/C (second compound 0.316 µM, first compound 0.0316 µM): 105%
- viability, T/C (second compound 0.316 µM, first compound 0.1 µM): 92%
- viability, T/C (second compound 0.316 µM, first compound 0.316 µM): 84%
- viability, T/C (second compound 0.316 µM, first compound 1 µM): 68%
- viability, T/C (second compound 0.316 µM, first compound 3.16 µM): 0.59%
- viability, T/C (second compound 0.316 µM, first compound 10 µM): 0.11%
- viability, T/C (second compound 1 µM, first compound 0.0316 µM): 98.4%
- viability, T/C (second compound 1 µM, first compound 0.1 µM): 97.3%
- viability, T/C (second compound 1 µM, first compound 0.316 µM): 95.6%
- viability, T/C (second compound 1 µM, first compound 1 µM): 57%
- viability, T/C (second compound 1 µM, first compound 3.16 µM): 0.36%
- viability, T/C (second compound 1 µM, first compound 10 µM): 0.12%
- viability, T/C (second compound 3.16 µM, first compound 0.0316 µM): 104%
- viability, T/C (second compound 3.16 µM, first compound 0.1 µM): 98%
- viability, T/C (second compound 3.16 µM, first compound 0.316 µM): 97%
- viability, T/C (second compound 3.16 µM, first compound 1 µM): 51.6%
- viability, T/C (second compound 3.16 µM, first compound 3.16 µM): 0.27%
- viability, T/C (second compound 3.16 µM, first compound 10 µM): 0.13%
- viability, T/C (second compound 10 µM, first compound 0.0316 µM): 106%
- viability, T/C (second compound 10 µM, first compound 0.1 µM): 113%
- viability, T/C (second compound 10 µM, first compound 0.316 µM): 85.3%
- viability, T/C (second compound 10 µM, first compound 1 µM): 55.7%
- viability, T/C (second compound 10 µM, first compound 3.16 µM): 0.4%
- viability, T/C (second compound 10 µM, first compound 10 µM): 0.22%
